Ends that are not written are not given here.
What was measured:
Munc18-1 = molecular target: T1, Munc18-1 (Rattus norvegicus, UniProt P61765); experiment: ITC of Mint peptides and Sx1a binding to Munc18-1
T1 construct: His (C); made in house; host or cells: Escherichia coli Rosetta BL21 (DE3)
Procedure: For ITC, all peptides were weighed and initially dissolved in the working buffer to make a stock concentration of 2 mM. […] The binding parameters, equilibrium constant Ka (1/Kd), stoichiometry (n), and the enthalpy (ΔH) were determined by processing the ITC data using ORIGIN 7.0 software. The equation, ΔG = ΔH – TΔS, was used to calculate the Gibbs free energy (ΔG), and all the experiments were performed in triplicate or duplicate to calculate the SEM for thermodynamic parameters.

[1] = molecular target: Munc18-1^Δ317–333 + Mint1; experiment: ITC of Sx1a binding to Munc18-1 hinge-loop deletion mutant in the presence of Mint1 (261–282) peptide; set-up: species or system rat; conditions: Table 2; syringe Sx1a + Mint1, cell Munc18-1^Δ317–333 + Mint1; ITC 25 °C
Source text: As Mint1 binds to Munc18-1 domain 3b, we hypothesized that the perturbed Mint1 interaction on deletion of the distal domain 3a hinge-loop might be due to altered structural dynamics in the combined domain3a/3b module. […] This is in line with the ability to cocrystallize the three proteins when excess Mint1 peptide is present ([47]). […] This has potential implications for a role of Mint proteins in Munc18-1-mediated SNARE assembly, which is a tightly regulated and highly dynamic process.
For ITC, all peptides were weighed and initially dissolved in the working buffer to make a stock concentration of 2 mM. […] GST-Mint1 and all the other proteins used in the experiments were buffer exchanged into 50 mM Tris (pH 8.0) and 200 mM NaCl by gel filtration prior to ITC. […] Mint1 PTB domain binding to the APP and TJAP1 peptides was performed in 50 mM Hepes, 200 mM NaCl, 0.5 mM TCEP, and 5% glycerol at 25 °C with 1 mM peptides titrated into 50 μM Mint1 PTB domain. The binding parameters, equilibrium constant Ka (1/Kd), stoichiometry (n), and the enthalpy (ΔH) were determined by processing the ITC data using ORIGIN 7.0 software. The equation, ΔG = ΔH – TΔS, was used to calculate the Gibbs free energy (ΔG), and all the experiments were performed in triplicate or duplicate to calculate the SEM for thermodynamic parameters.

T1 sequence (P61765 whole entry): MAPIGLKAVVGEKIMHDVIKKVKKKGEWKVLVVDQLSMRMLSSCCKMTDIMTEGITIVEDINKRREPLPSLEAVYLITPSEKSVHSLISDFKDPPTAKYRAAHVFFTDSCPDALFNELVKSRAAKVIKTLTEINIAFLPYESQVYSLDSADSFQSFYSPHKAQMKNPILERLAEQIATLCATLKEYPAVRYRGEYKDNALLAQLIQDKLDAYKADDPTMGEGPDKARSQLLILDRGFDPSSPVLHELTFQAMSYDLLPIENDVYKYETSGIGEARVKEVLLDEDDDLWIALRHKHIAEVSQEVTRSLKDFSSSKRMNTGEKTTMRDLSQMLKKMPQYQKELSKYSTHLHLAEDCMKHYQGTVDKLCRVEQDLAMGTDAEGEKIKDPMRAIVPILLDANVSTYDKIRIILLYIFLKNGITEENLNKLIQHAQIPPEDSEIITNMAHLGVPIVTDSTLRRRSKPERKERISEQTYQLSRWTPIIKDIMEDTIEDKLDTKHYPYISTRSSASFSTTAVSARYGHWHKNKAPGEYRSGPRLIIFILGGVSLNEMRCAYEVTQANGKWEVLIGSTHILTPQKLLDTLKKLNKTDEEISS

Row | Kd (Munc18-1) | Substance | Kd [1]
1 | 216 µM | MDSYEQEEDIDQIVAAVKQSMS [Mint1_14] | –
2 | 200 µM | LEDQEEDIDQIVAEIKMELEMEEI [Mint2_2] | –
3 | – | Sx1a: recombinant rat Syntaxin1a (Sx1_1–261-His) expressed in E. coli | 0.09 µM
